In patent US20220249596A1, “PIC1 PEPTIDE COMPOSITIONS AND METHODS OF USE THEREOF FOR TREATMENT OF HYPOXIC ISCHEMIC ENCEPHALOPATHY” (REALTA HOLDINGS, LLC, priority 2019, published 2022):
“Also recorded” adds a separate entry of the source. No end group written: not given here.

Tests used:
C1q = assay: CNS C1q level in whole cell brain lysate, fluorescent immunoassay; type: in vivo, rat; conditions: 8, 12 and 24 hours after initial insult, P<0.05
Experimental: The local and systemic effects of NT, HT and PIC1 treatment on the complement cascade were measured. CNS C1q levels and systemic C1q and C5a levels were measured using a fluorescent immunoassay.
CNS C1q levels were measured as follows. 150 μg of whole cell brain lysate in 1× PBS was added to the wells of a Costar high binding, black flat bottom 96-well polystyrene microplate (Corning, Steuben County, NY) and incubated overnight at 4° C. The plates were washed 3 times with 1× PBS-0.1% Tween 20 (PBST) and blocked with 10% normal donkey serum (NDS) for one hour. A 1:50 dilution of goat anti-human C1q (Complement Technology, Inc., Tyler, Tex.) in NDS was added into the wells and incubated for one hour at room temperature (RT). After washing, a 1:500 dilution of donkey anti-goat Alexa Fluor (AF) 488 (Life Technologies, Grand Island, N.Y.) in NDS was added, and incubated for one hour at RT. Wells were then washed and blocked with 10% normal goat serum (NGS) for one hour at RT. A 1:250 dilution of mouse anti-GAPDG (Abcam, Cambridge, UK) in NGS was added into the wells and incubated for one hour at RT. Wells were washed and a 1:500 dilution of goat anti-mouse AF 568 (Life Technologies, Grand Island, N.Y.) in NGS was added to incubate for one hour at RT. The wells were washed and the plate read using a Synergy HT (BioTek, Winooski, Vt.).

[1] = tested on: brain lesion after hypoxia/ischemia; assay: T2 MRI for brain tissue viability, lesion volume and edema; type: in vivo, rat
Experimental: Neonatal hypoxia/ischemia was induced in Wistar rat pups (age of 10±1 days, P10) according to Rice et al. (1981) and with modifications. Rat pups were anesthetized with 5% isoflurane (in 70% N2O and 30% O2; flow 300 ml/min). During the operation the concentration of anesthetic was reduced to 1.0-1.5% to maintain adequate level of anesthesia. The rectal temperature was maintained at 37.0±1.5° C. with a homeothermic blanket system (Harvard Apparatus, UK). Just before first incision, pups received buprenorphine 0.03 mg/kg i.p. After midline skin incision, the right common carotid artery (CCA) was exposed and permanently ligated distal from the carotid bifurcation. Thereafter the wound was closed, disinfected, and the animals were allowed to recover from anesthesia for 1 hour before subjecting them to hypoxic conditions. Pups were carefully monitored for possible post-surgical complications. An additional dose of buprenorphine 0.03 mg/kg was administered s.c. twice a day during the first 48 hours post-surgery.
Therma-treatment (6 hours) was started 1 hour post-hypoxia, to maintain normothermia (36+/−1° C. rat internal temperature) or hypothermia (31° C.+/−1 rat internal temperature), as follows. After CCA ligation, suturing and recovery for 1 h, pups were placed into chamber submerged to heated (+37° C.) water bath. Chamber was ventilated with heated (gas lines submerged to +37° C. water) mixture of 8% O2/92% N2 while pups were subjected to hypoxia. During the hypoxia period, chamber inner temperature was monitored. Pups were kept under hypoxic conditions for 60 minutes, except in group 5. In all pups the rectal temperature was monitored to ensure normothermic body temperature during hypoxia exposure. Rectal temperature after the H/I period was measured and recorded at the end of the exposure.
No other preparation was needed. The thawed tubes were kept on ice until dosing. […]
Brain tissue viability was performed as follows. Lesion T2 and Control T2 values (in milliseconds) were measured at 24 hours and 21 days after H/I, and the data are shown as average. […]

Q: Which “whole brain C1q levels, NT animals relative to PIC1-treated animals” value (C1q) does the source give for “IALILEPICCQERAA-dPEG24 (cysteine pairing not given here) [PIC1]” here?
A: significantly higher

Q: And the “lesion volume in MRI” value ([1]; 24 hours, pooled genders, H/I+PIC1+hypo versus H/I+hypo, p<0.05)?
A: reduction; also recorded: significant difference

Q: And the “edema (%) in MRI” value ([1]; 21 days, pooled genders, H/I+PIC1+normo versus H/I+hypo, p<0.01)?
A: reduction

Q: What about the “control T2 value” ([1]; contralateral cortex, between study groups, pooled or separated genders) of the same substance?
A: no changes; also recorded: No statistical significances
